Common to all, as to assay: HPLC-UV and LC-MS product detection
What all share (assay type): biochemical

One assay addresses T1, CnqP6 (Streptomyces sp. CNQ-509, UniProt A0A0F7N6A5).
T1 construct: gene AA958_12635; full-length, 300 aa; N-terminal His8 tag (pHis8) kept; E. coli Rosetta2(DE3)pLysS
As to conditions: […] °C, […] h.

In the next assay the target is T2, CnqP3 (Streptomyces sp. CNQ-509, UniProt A0A0F7NDP3).
T2 construct: gene AA958_24325; full-length, 305 aa; N-terminal His8 tag (pHis8) kept; E. coli Rosetta2(DE3)pLysS
As to conditions: […] °C, […] h.

The next assay addresses T3, CnqP4 (Streptomyces sp. CNQ-509, UniProt A0A0F7NDN9).
T3 construct: gene AA958_24270; full-length, 303 aa; N-terminal His8 tag (pHis8) kept; E. coli Rosetta2(DE3)pLysS
As to conditions: […] aromatic substrate, […] GPP, […] MgCl2, Tris-HCl pH […] °C, […] h.

The mark [1] stands for this setting: […] aromatic substrate, […] GPP, […] MgCl2, Tris-HCl pH […].

T1 sequence (A0A0F7N6A5 1-300): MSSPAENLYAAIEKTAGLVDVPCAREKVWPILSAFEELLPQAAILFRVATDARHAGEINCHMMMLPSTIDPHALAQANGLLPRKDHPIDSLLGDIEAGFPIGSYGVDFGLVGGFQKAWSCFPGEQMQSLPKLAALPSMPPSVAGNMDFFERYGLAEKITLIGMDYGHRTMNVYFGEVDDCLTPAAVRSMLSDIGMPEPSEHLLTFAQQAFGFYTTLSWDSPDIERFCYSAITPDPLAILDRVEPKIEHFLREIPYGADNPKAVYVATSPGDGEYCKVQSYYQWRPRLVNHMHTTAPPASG
T2 sequence (A0A0F7NDP3 1-305): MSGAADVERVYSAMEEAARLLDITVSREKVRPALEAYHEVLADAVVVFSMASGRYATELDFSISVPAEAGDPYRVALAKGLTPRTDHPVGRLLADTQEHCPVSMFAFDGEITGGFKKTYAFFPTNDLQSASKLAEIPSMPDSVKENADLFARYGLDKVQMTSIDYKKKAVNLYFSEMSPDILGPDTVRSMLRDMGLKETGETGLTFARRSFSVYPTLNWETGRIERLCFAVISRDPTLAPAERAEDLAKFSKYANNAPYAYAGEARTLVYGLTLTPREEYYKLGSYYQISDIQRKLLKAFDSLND
T3 sequence (A0A0F7NDN9 1-303): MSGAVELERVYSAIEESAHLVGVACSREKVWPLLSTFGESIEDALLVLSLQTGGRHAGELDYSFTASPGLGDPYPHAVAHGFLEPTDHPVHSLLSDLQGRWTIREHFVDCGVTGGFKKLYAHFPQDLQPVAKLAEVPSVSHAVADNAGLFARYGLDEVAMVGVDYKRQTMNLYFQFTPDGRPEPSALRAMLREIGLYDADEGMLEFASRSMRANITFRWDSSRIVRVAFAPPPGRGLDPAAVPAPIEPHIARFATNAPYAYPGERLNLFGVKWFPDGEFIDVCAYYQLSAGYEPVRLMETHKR

Regarding `CC(C)=CCC/C(C)=C/COP(=O)(O)OP(=O)(O)O` [GPP], the “HPLC-UV and LC-MS product detection” value at CnqP6 (with genistein ([…]), […] GPP, […] MgCl2, Tris-HCl pH […]) is “genistein was converted with GPP by the prenyltransferases CnqP2, CnqP3 and CnqP6”; on CnqP3 (with flaviolin ([…]), […] GPP, […] MgCl2, Tris-HCl pH […]), “Incubation with GPP resulted in the production of a new compound”.
Regarding `Oc1ccc2ccc(O)cc2c1` [2,7-DHN], the “HPLC-UV and LC-MS product detection” value at CnqP4 is “we found monogeranylated products for CnqP2, CnqP3 and CnqP4”.
For `O=c1c(-c2ccc(O)cc2)coc2cc(O)cc(O)c12` [genistein], the “HPLC-UV and LC-MS product detection” value on CnqP6 (setting [1]) was “genistein was converted with GPP by the prenyltransferases CnqP2, CnqP3 and CnqP6”.
Consider `O=C1C(O)=CC(=O)c2c(O)cc(O)cc21` [flaviolin], for which the “HPLC-UV and LC-MS product detection” value on CnqP3 (setting [1]) was “Only CnqP3 accepted flaviolin as a substrate”.
